Assay results as given in PMC7217877, “N-AS-triggered SPMs are direct regulators of microglia in a model of Alzheimer’s disease” (Nature Communications, 2020).
Values joined by “and” are separate entries in the source; they are usually repeats but may differ in a detail not shown here. Identical values can stand only once.

Biological target: T1, COX2 S565A (Homo sapiens, UniProt P35354, S565A)
T1 construct: His (N); made in house
T1 sequence (P35354 18-604 S565A): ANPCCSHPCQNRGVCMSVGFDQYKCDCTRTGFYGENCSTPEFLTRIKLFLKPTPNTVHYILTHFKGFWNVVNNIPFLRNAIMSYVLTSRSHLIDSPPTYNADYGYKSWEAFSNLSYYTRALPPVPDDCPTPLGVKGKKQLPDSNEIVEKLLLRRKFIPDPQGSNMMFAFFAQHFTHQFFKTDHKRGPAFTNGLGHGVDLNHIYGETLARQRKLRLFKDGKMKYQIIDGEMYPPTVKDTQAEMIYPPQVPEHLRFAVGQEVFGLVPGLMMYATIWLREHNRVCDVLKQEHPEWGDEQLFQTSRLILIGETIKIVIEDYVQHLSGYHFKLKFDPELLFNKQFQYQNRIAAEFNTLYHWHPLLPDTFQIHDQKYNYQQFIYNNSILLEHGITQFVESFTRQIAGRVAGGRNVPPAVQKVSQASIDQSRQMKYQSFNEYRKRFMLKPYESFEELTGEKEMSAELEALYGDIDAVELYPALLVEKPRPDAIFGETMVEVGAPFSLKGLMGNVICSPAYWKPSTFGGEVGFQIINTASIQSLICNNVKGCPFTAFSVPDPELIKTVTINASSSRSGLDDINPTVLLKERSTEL
Assay: lipid mediator and SPM biosynthesis by recombinant COX2 with 5-LOX (LC-MS/MS)
Assay type: biochemical
Conditions: COX2 S565A + 5-LOX; replicates
Excerpt: Single point mutations in SphK1 (R56A, R57A, R24A, R185A, D178A, and F192A) and COX2 (S565A, N181A, T564A, and S567A) were generated using the In-Fusion Cloning Kits (Clontech) and ORF cDNA expression plasmids of human SphK1 and COX2 gene (Sino Biological Inc, HG15679-NH and HG12036-NH), according to the manufacturer’s instructions. The forward and reverse primers described in Supplementary Table 4. The SphK1 WT, SphK1 mutants, COX2 WT, and COX2 mutant plasmids were transformed in the One shot TOP 10 competent cell (Invitrogen). The bacteria were grown in Luria-Bertani (LB, Invitrogen) plates supplemented with 50 μg ml^−1 kanamycin (Sigma-Aldrich) at 37 °C. The bacterial cell pellets were resuspended in lysis buffer containing 20 mM sodium phosphate (GE Healthcare), 500 mM NaCl (GE Healthcare), 20 mM imidazole (pH 7.4) (GE Healthcare), 0.2 mg ml^−1 lysozyme (Sigma-Aldrich), 20 μg ml^−1 DNase I (Roche), 1 mM MgCl2 (Sigma-Aldrich), and 1 mM PMSF (Sigma-Aldrich) before being lysed by sonication and clarified by centrifugation at 15,493×g for 10 min. Proteins were purified from the soluble fraction using His-Spin Trap columns (GE Healthcare) and the binding and acetylation assays were performed.
Lipid mediators metabololipidomics were performed according to previously described procedures with minor modifications[4],[30]. To confirm the biosynthesis of lipid mediators by recombinant COX2 treated with N-AS or aspirin, 10 U of human recombinant COX2 (Cayman, 60122) was incubated in the presence of 500 μM aspirin (Sigma-Aldrich, A5376) or N-AS (Sigma-Aldrich, 01912) at 37 °C for 30 min. The enzyme was filtered with a Microcon column (Millipore) to remove unreacted aspirin or N-AS and was then resuspended in 0.1 M Tris-HCl (pH 8.0). Next, 500 μM phenol (Sigma-Aldrich) and 1 μM hematin-porcine (Sigma-Aldrich) were added immediately before incubation with 100 μM AA, EPA or DHA (Cayman) at 37 °C for 2 h, respectively. The mixtures were incubated with 30 U of human 5-LOX (Cayman, 60402) containing 2 mM CaCl2 (Sigma-Aldrich), 1 mM ATP (Amresco) and 5 μM 13-HpODE (Cayman) as activators. Also, to validate the importance of residue S565 for N-AS-acetylation of COX2 and production of SPMs, 10 U of the COX2 S565A mutant was used in the above-described method. In addition, to confirm SPM generation in neurons and microglia, these cells were treated with Aβ and sonicated in neuronal and glial culture medium. […] To evaluate the relationship of N-AS and SPM production in microglia, microglia were isolated from WT, APP/PS1, and APP/PS1 treated with N-AS mice at 9 months of age. The microglia were sonicated and resuspended in microglial culture medium. The supernatants were incubated with 100 μM AA, EPA, and DHA (Cayman) at 37 °C for 2 h. A 50 μl aliquot of the mixture from each cell lysate was added to a 250 μl aliquot of 1 ng ml^−1 of 15S-LXA4-d5 (internal standard, Cayman) methanol solution. After vortexing for 10 min and centrifuging at 15,974×g for 5 min, the supernatant was subjected to the analysis of the lipid mediators using an Agilent 6470 Triple Quad LC-MS/MS system (Agilent) coupled to an Agilent 1290 HPLC system. Chromatographic separation was achieved using a Synergi Polar RP (4 μm, 2.0 mm i.d. × 150 mm, Phenomenex). Analytes were eluted with a mobile phase consisting of water: formic acid (100:0.1 v/v) (phase A) and methanol: formic acid (100:0.1 v/v) (phase B) in gradient elution mode for 23 min a flow rate of 0.2 ml min^−1. The elution gradient was as follows: from 0 to 0.1 min the content of phase A was 37% and the content of phase A was decreased to 10% and maintained for 5.5 min. The content of phase A was increased back to 37% at 6.0 min and maintained for 23 min. Quantification was carried out using MRM in negative ionization mode and collision energy of 10–15 eV. The mass transition from Q1 to Q3 is shown in Supplementary Table 2. In this study, the peak areas for all components were automatically integrated using MassHunter B 06.00. […]

For CC(=O)Oc1ccccc1C(=O)O [Aspirin, acetylsalicylic acid, reference compound], the “15R-LxA4 quantification (Fig 2c)” value was 9150.99 and 8986.22 and 7776.32 and 8811.42 and 9216.35 and 9050.41, the “RvD1 quantification (Fig 2c)” value was 427.4 and 465.61 and 668.98 and 626.93 and 591.63 and 656.31 and 339.99 and the “RvE1 quantification (Fig 2c)” value was 3219.24 and 3312.36 and 4211.76 and 3281.98 and 3114.22 and 3326.6.

With CCCCCCCCCCCCC/C=C/[C@@H](O)[C@H](CO)NC(C)=O [N-AS, N-((2S,3R,E)-1,3-Dihydroxyoctadec-4-en-2-yl)acetamide] the “15R-LxA4 quantification (Fig 2c)” value was 4593.92 and 7037.27 and 8226.06 and 8467.27 and 8518.27, the “RvD1 quantification (Fig 2c)” value was 267.45 and 147.28 and 357.09 and 383.18 and 373.27 and 420.17 and 225.36 and the “RvE1 quantification (Fig 2c)” value was 2644.24 and 1751.77 and 1695.83 and 1984.56 and 2632.92 and 1703.12 and 1993.09.
